Measurements as given in patent US12011502B2, “Compositions and methods of administering baclofen” (AMNEAL PHARMACEUTICALS LLC, priority 2021, dated 2024).

Tests used:
[1] = limited evaluation, literature; cited from earlier work
[2] = reported in the literature; cited from earlier work
[3] = Solubility of baclofen in solutions comprising sulfate or phosphate; assay type: physicochemical
Method: A concentration of 8.8 mg/mL sodium chloride is considered isotonic and therefore desirable as being physiologically acceptable.

Row | SMILES | biological activity of the metabolite [1] | dominant metabolite of baclofen, reported share [2] [%] | solubility of baclofen ([3]; in solutions comprising sulfate or phosphate) | concentration of baclofen that can be dissolved ([3]; solutions containing phosphate, sulfate, potassium, sodium, or magnesium, such as greater than 3, 4, 5 or 6 mg/mL)
1 | O=C(O)CC(CO)c1ccc(Cl)cc1 (stereo not shown) [M1, 3-(4-chlorophenyl)-4-hydroxybutyric acid] | inactive | 15 | – | –
2 | NCC(CC(=O)O)c1ccc(Cl)cc1 (stereo not shown) [baclofen, 4-amino-3-(4-chlorophenyl)butanoic acid] | – | – | increased | greater than 2 mg/mL
